Literature values, collected in patent US12336993B2, “Therapeutic benefit of suboptimally administered chemical compounds” (priority 2013, dated 2025).

Tests used:
[1] = tested on: non-Hodgkin's lymphoma; conditions: literature report (Kennedy et al. 1999)
[2] = tested on: Hodgkin's lymphoma; conditions: literature reports (Gold et al. 1970; Kennedy et al. 1999)
[3] = tested on: DNA; conditions: guanine-N7 alkylation of DNA
[4] = tested on: chronic lymphocytic leukemia; conditions: literature reports (Kennedy & Theologides 1961; Kennedy et al. 1999)
[5] = biological target: glycogen synthase kinase-33 (GSK-30) (Homo sapiens, UniProt P49841)
Sequence of glycogen synthase kinase-33 (GSK-30) (P49841 whole entry): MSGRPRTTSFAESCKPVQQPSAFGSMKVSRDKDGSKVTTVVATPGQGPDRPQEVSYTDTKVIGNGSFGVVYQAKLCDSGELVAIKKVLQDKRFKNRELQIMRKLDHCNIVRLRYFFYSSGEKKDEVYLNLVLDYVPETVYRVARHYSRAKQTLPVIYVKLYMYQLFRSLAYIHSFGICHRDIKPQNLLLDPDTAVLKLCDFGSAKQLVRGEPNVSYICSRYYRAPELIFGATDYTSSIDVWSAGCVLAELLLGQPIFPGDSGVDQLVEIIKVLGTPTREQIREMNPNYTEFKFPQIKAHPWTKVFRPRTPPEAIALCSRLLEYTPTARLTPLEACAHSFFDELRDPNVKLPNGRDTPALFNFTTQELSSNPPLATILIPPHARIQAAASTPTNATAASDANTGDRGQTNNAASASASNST

## O=c1[nH]cc(N(CCCl)CCCl)c(=O)[nH]1 [uracil mustard, 5-[bis(2-chloroethyl)amino]-1H-pyrimidine-2,4-dione]
[1]
  activity in non-Hodgkin's lymphoma: active
[2]
  activity in Hodgkin's lymphoma: active
[3]
  sequence preferences to alkylate: 5′-YGC-3′
[4]
  activity in chronic lymphocytic leukemia: active

## CN1C(=O)/C(=C2/C(=O)Nc3ccccc32)c2ccccc21 [meisoindigo]
[5]
  concentration at which inhibition of GSK is promoted: 5 to 50 nM
